{
  "source": "patent US11801247B1",
  "about": "“Method of treating trypanosomiasis” (KING FAISAL UNIVERSITY, priority 2023, dated 2023)",
  "key": {"T. brucei": {"tested_on": "T. brucei", "conditions": "cited from earlier work; for potency against T. brucei: thymidine and folate-deficient medium"}, "[1]": {"tested_on": "T. b. brucei (Tbb) GuTat3.1", "experiment": "Anti-trypanosomal assay (CellTiter-Glo viability)", "format": "cell-based", "conditions": "TbbGUTat3.1, mean ± SD", "source_text": "(§1) Raltitrexed was purchased from ApexBio (Houston, TX, USA), and CultureSure DMSO was obtained from Wako Pure Chemical (Osaka, Japan). T. b. brucei (Tbb) GuTat3.1, T. b. rhodesiense (Tbr) IL1501, T. b. gambiense (Tbg) IL1922 (isolated from Ivory Coast), T. evansi (Tev) Tansui (isolated from Taiwan), T. equiperdum (Teq) IVM-t1 and T. congolense (Tc) IL3000 were also obtained for this study. A 96-well Optical bottom plate was purchased from ThermoFisher […] (Waltham, MA, USA). CellTiter-Glo Luminescent cell viability reagent and GloMax plate reader were purchased from Promega Corporation (Fitchburg, WI, USA). Hiram's modified Isocove's Dulbecco's medium (HMI-9), HEPES, pyruvic acid sodium salt, BSA, thymidine, 2-mercaptoethanol, L-cysteine, bathocuproine and hypoxanthine were purchased from Sigma-Aldrich (Tokyo, Japan). A basic plate shaker was obtained from IKA® JAPAN (K.K., Osaka, Japan).\n(§2) The trypanocidal activity of raltitrexed was evaluated. The trypanosomes were cultured at 37° C. for Tbb, Tbg, Tbr, Teq and Tev and 33° C. for Tc in an incubator at 5% CO2 using HMI-9 supplemented with 20% heat-inactivated fetal calf serum, 60 mM HEPES, 10 μg/L insulin, 0.1 mM bathocuproine, 5.5 μg/L transferrin, 1 mM pyruvic acid sodium salt, 1 mM hypoxanthine, 16 μM thymidine, 6.7 ng/L sodium selenite, 0.0001% 2-$-mercaptoethanol, 2 mM L-cysteine and 0.4 g/L BSA. Trypanosomes were subcultured every two days. Raltitrexed was dissolved in DMSO:H2O (1:10, v/v). The effect of the solvent was assessed to be negligible on the parasite.\n(§3) Initially, raltitrexed was examined at two concentrations of 25 and 0.25 μg/ml to check the possible extended spectrum opportunities against six trypanosomes. […] This range was effective in the accurate estimation of the IC50 of the compound. After three days of cultivation, 25 μL of CellTiter-Glo Luminescent cell viability reagent were aliquoted into each well, and the plate was shaken for 500 shakes/min by an MS3 basic plate shaker for 30 s to facilitate cell lysis and release intracellular ATP. After mixing, the bioluminescence of each well was measured using a Glomax plate reader."}, "[2]": {"tested_on": "T. b. gambiense (Tbg) IL1922", "experiment": "Anti-trypanosomal assay (CellTiter-Glo viability)", "format": "cell-based", "conditions": "TbgIL1922, mean ± SD", "source_text": "as §1, §2, §3"}, "[3]": {"tested_on": "T. equiperdum (Teq) IVM-t1", "experiment": "Anti-trypanosomal assay (CellTiter-Glo viability)", "format": "cell-based", "conditions": "mean ± SD", "source_text": "as §1, §2, §3"}, "[4]": {"tested_on": "T. congolense (Tc) IL3000", "experiment": "Anti-trypanosomal assay (CellTiter-Glo viability)", "format": "cell-based", "conditions": "TcIL3000", "source_text": "as §1, §2, §3"}, "T. evansi (Tev) Tansui": {"tested_on": "T. evansi (Tev) Tansui", "experiment": "Anti-trypanosomal assay (CellTiter-Glo viability)", "format": "cell-based", "conditions": "mean ± SD", "source_text": "as §1, §2, §3"}, "[5]": {"tested_on": "T. b. rhodesiense (Tbr) IL1501", "experiment": "Anti-trypanosomal assay (CellTiter-Glo viability)", "format": "cell-based", "conditions": "TbrIL1501, mean ± SD", "source_text": "as §1, §2, §3"}, "TS activity of TbDHFR-TS": {"target": "TS activity of TbDHFR-TS (Trypanosoma brucei brucei, UniProt Q27783)", "sequence (Q27783 whole entry)": "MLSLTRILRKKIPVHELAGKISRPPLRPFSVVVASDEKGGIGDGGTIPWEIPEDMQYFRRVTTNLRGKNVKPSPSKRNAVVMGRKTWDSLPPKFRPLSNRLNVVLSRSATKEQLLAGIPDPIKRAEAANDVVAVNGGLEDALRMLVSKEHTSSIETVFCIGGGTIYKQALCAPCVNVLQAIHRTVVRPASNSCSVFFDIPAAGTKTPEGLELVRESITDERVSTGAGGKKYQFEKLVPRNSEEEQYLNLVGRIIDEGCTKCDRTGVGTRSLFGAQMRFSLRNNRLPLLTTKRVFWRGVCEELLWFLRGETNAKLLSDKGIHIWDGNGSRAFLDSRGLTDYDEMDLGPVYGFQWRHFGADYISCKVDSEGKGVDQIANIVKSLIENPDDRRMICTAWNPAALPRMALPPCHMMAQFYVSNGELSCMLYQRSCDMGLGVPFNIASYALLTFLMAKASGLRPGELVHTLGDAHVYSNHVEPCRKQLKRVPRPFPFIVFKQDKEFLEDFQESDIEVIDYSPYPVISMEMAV", "conditions": "cited from earlier work"}, "six Trypanosoma species": {"tested_on": "six Trypanosoma species", "experiment": "Anti-trypanosomal assay, six trypanosomes taken together", "format": "cell-based", "source_text": "as §1, §2\nInitially, raltitrexed was examined at two concentrations of 25 and 0.25 μg/ml to check the possible extended spectrum opportunities against six trypanosomes. […] This range was effective in the accurate estimation of the IC50 of the compound. […] After mixing, the bioluminescence of each well was measured using a Glomax plate reader."}, "[6]": {"target": "DHFR activity of TbDHFR-TS (Trypanosoma brucei brucei, UniProt Q27783)", "sequence (Q27783 whole entry)": "as above", "conditions": "cited from earlier work"}},
  "note": "Where two headings read alike, the source gives them in different places.",
  "data": [
    {"smiles": "Nc1nc2[nH]cc(CCc3ccc(C(=O)N[C@@H](CCC(=O)O)C(=O)O)cc3)c2c(=O)[nH]1", "note": "[pemetrexed]", "values": [
      {"measurement": "potency against T. brucei", "setting": "T. brucei", "value": "Nanomolar potency"}
    ]},
    {"smiles": "Cc1nc2ccc(CN(C)c3ccc(C(=O)N[C@@H](CCC(=O)O)C(=O)O)s3)cc2c(=O)[nH]1", "note": "[Raltitrexed]", "values": [
      {"measurement": "Inhibition Rate at 25 μg/mL", "setting": "[1]; 25 μg/mL", "value": "99.47 ± 0.07", "unit": "%"},
      {"measurement": "inhibition at 0.25 µg/mL", "setting": "[1]; Trypanosoma brucei, 0.25 μg/mL, read-out: Inhibition Rate at 0.25 μg/mL", "value": 0, "unit": "%"},
      {"measurement": "inhibition at 25 µg/mL", "setting": "[1]; Trypanosoma brucei, 25 μg/mL, read-out: Inhibition Rate at 25 μg/mL", "value": "> 99", "unit": "%"},
      {"measurement": "Inhibition Rate at 25 μg/mL", "setting": "[2]; 25 μg/mL", "value": "99.6 ± 0.33", "unit": "%"},
      {"measurement": "inhibition at 0.25 µg/mL", "setting": "[2]; Trypanosoma brucei, GAMBIENSE, 0.25 μg/mL, read-out: Inhibition Rate at 0.25 μg/mL", "value": 0, "unit": "%"},
      {"measurement": "inhibition at 25 µg/mL", "setting": "[2]; Trypanosoma brucei, GAMBIENSE, 25 μg/mL, read-out: Inhibition Rate at 25 μg/mL", "value": "> 99", "unit": "%"},
      {"measurement": "Inhibition Rate at 25 μg/mL", "setting": "[3]; 25 μg/mL", "value": "99.8 ± 0.027", "unit": "%"},
      {"measurement": "inhibition at 0.25 µg/mL", "setting": "[3]; Trypanosoma equiperdum, 0.25 μg/mL, read-out: Inhibition Rate at 0.25 μg/mL", "value": 0, "unit": "%"},
      {"measurement": "inhibition at 25 µg/mL", "setting": "[3]; Trypanosoma equiperdum, 25 μg/mL, read-out: Inhibition Rate at 25 μg/mL", "value": "> 99", "unit": "%"},
      {"measurement": "Inhibition Rate at 25 μg/mL", "setting": "[4]; 25 μg/mL, mean ± SD", "value": "low trypanocidal rate"},
      {"measurement": "IC50", "setting": "[4]; Trypanosoma congolense, 72 h, three days of cultivation", "value": "> 25", "unit": "µg/mL"},
      {"measurement": "inhibition at 0.25 µg/mL", "setting": "[4]; Trypanosoma congolense, 0.25 μg/mL, mean ± SD, read-out: Inhibition Rate at 0.25 μg/mL", "value": 0, "unit": "%"},
      {"measurement": "inhibition at 25 µg/mL", "setting": "[4]; Trypanosoma congolense, 25 μg/mL, mean ± SD, read-out: Inhibition Rate at 25 μg/mL", "value": "1.77 ± 2.5", "unit": "%"},
      {"measurement": "inhibition at 0.25 µg/mL", "setting": "T. evansi (Tev) Tansui; 0.25 μg/mL, read-out: Inhibition Rate at 0.25 μg/mL", "value": 0, "unit": "%"},
      {"measurement": "Inhibition Rate at 25 μg/mL", "setting": "T. evansi (Tev) Tansui; 25 μg/mL", "value": "99.9 ± 0.12", "unit": "%"},
      {"measurement": "inhibition at 25 µg/mL", "setting": "T. evansi (Tev) Tansui; 25 μg/mL, read-out: Inhibition Rate at 25 μg/mL", "value": "> 99", "unit": "%"},
      {"measurement": "Inhibition Rate at 25 μg/mL", "setting": "[5]; 25 μg/mL", "value": "99.68 ± 0.16", "unit": "%"},
      {"measurement": "inhibition at 0.25 µg/mL", "setting": "[5]; Trypanosoma brucei, RHODESIENSE, 0.25 μg/mL, read-out: Inhibition Rate at 0.25 μg/mL", "value": "1.01 ± 1.4", "unit": "%"},
      {"measurement": "inhibition at 25 µg/mL", "setting": "[5]; Trypanosoma brucei, RHODESIENSE, 25 μg/mL, read-out: Inhibition Rate at 25 μg/mL", "value": "> 99", "unit": "%"},
      {"measurement": "IC50", "setting": "TS activity of TbDHFR-TS", "value": 215, "unit": "nM"},
      {"measurement": "effect of adding folate and thymidine on effectiveness", "setting": "T. brucei; folate and/or thymidine added to the medium", "value": "addition of thymidine decreased the effectiveness of raltitrexed more so than the addition of folate"},
      {"measurement": "potency against T. brucei", "setting": "T. brucei", "value": "Nanomolar potency"},
      {"measurement": "trypanocidal action on all test strains", "setting": "six Trypanosoma species; 25 μg/mL", "value": "suppressed all the test strains"},
      {"measurement": "IC50", "setting": "six Trypanosoma species; Trypanosoma, range across species, serial dilution 25 to 0.78 μg/mL, read-out: IC50 range over the Trypanosoma species", "value": "5.18 to 24.1", "unit": "µg/mL"},
      {"measurement": "IC50", "setting": "six Trypanosoma species; range against Trypanosoma, summary statement, read-out: estimated IC50 range", "value": "8.88 to 22.5", "unit": "µg/mL"},
      {"measurement": "IC50", "setting": "[6]", "value": 93.1, "unit": "nM"}
    ]},
    {"smiles": "CN(Cc1cnc2nc(N)nc(N)c2n1)c1ccc(C(=O)N[C@@H](CCC(=O)O)C(=O)O)cc1", "note": "[methotrexate]", "values": [
      {"measurement": "potency against T. brucei", "setting": "T. brucei", "value": "Nanomolar potency"}
    ]}
  ]
}
